This series is described as follows: Biodistribution and biodegradation after i.v. application (HPLC of MTO, SQUID/MRX of iron oxide). Type of series: in vivo, New Zealand White Rabbits. As to conditions: for concentration at 24 h: New Zealand White, rabbit, iv, regular systemic dose of pure MTO (10 mg MTO/m2 body surface), n=6, HPLC. As to the method: For the animal experiments New Zealand White Rabbits were used. The animals, weighing about 4.5 - 5.2 kg, were treated (i.v.) with ferrofluid bound MTO containing a drug amount of 10% compared to the regular systemic dose which requires 10 mg MTO/m2 body surface (n=5). The other study group (n=6) received the regular systemic dose of pure MTO. After 24h hours the animals were sacrificed and the organs harvested. Complete organs of liver and kidneys were processed and MTO was extracted for HPLC-analysis. Tissue homogenates have also been measured by SQUID.

Read-outs that look alike come from different tables or passages of the source.

On to `O=C1c2c(O)ccc(O)c2C(=O)c2c(NCCNCCO)ccc(NCCNCCO)c21` [pure MTO, mitoxantron], for which the concentration at 24 h was 8500 ng/g (kidney, read-out: MTO concentration in kidneys) and 190 ng/g (liver, read-out: MTO concentration in liver tissue). Further, the “MTO enrichment in kidneys relative to liver” value (pure i.v. injection of MTO, regular systemic dose, 24h) turned out to be 44 fold.

Source of the values: patent publication EP2508171B1, “Pharmaceutical magnetic nano-particle composition” (Universitätsklinikum Erlangen, priority 2011, dated 2012).
